Results published in PMC9181982, “Biphenyl Ether Analogs Containing Pomalidomide as Small-Molecule Inhibitors of the Programmed Cell Death-1/Programmed Cell Death-Ligand 1 Interaction” (Molecules, 2022).

Columns and labels:
[1] = target: T1, PD-1/PD-L1 complex (Homo sapiens, UniProt Q9NZQ7); assay: HTRF (homogeneous time-resolved fluorescence) PD-1/PD-L1 binding assay (Cis-Bio); details: 5 nM hPD-L1, 50 nM hPD-1
T1 construct: purchased Cis-Bio
Protocol: To validate the activity toward PD-L1 of our compounds, we carried out an HTRF (homogeneous time-resolved fluorescence) experiment at two concentrations of the ligand (5 µM and 0.5 µM) (Table 1).
HTRF was carried out using a certified Cis-Bio assay according to the manufacturer’s guidelines. The experiments were carried out at 5 nM of h-L1 and 50 nM of hPD-1 in the final formulation at the 20 µL final volume in the well. To determine the half maximal inhibitory concentrations (IC50) of the tested compounds, the measurements were carried out on two individual dilution series unless stated otherwise. After mixing all the components according to the Cis-Bio protocol, the plate was left for 2 h incubation at room temperature followed by the TR-FRET measurement on a Tecan Spark 20M. […] The collected data was background-subtracted from the negative control, normalized on the positive control, averaged, and fitted with the normalized Hill’s equation to determine the IC50 value using Mathematica 12 (Princeton, NJ, USA).

[2] = target: T2, PD-L1 protein (Homo sapiens, UniProt Q9NZQ7); assay: 1H NMR binding analysis, PD-L1 protein titrated with ligand; details: for Binding to PD-L1 by 1H NMR titration: PBS pH 7.4, 300 K, protein–ligand ratios up to 1:10
T2 construct: PD-L1 gene (amino acids 18–239); made in house; host or cells: E. coli BL21
Protocol: Apart from the HTRF assay, we performed the NMR [33, 34] binding analysis by recording the ^1H spectrum of the PD-L1 protein titrated with compound 4 (Figure 1).
The E. coli strain BL21 was transformed with a pET-21b plasmid carrying the PD-L1 gene (amino acids 18–239). The bacteria were cultured in LB at 37 °C until OD600nm of 0, 6 when the recombinant protein production was induced with 1 mM IPTG. The protein production continued overnight. The inclusion bodies were collected by centrifugation, washed twice with 50 mM Tris HCl, pH 8.0, containing 200 mM NaCl, 10 mM EDTA, 10 mM 2-mercaptoethanol, and 0.5% Triton X-100, followed by a single wash with the same buffer but with no Triton X-100. The washed inclusion bodies were resuspended overnight in 50 mM Tris HCl, pH 8.0, 6 M GuHCl, 200 mM NaCl, and 10 mM 2-mercaptoethanol and clarified with centrifugation. Refolding of PD-L1 was performed by dropwise dilution into 0.1 M Tris HCl, pH 8.0, containing 1 M L-arginine hydrochloride, 0.25 mM oxidized glutathione, and 0.25 mM reduced glutathione. The refolded protein was dialyzed three times against 10 mM Tris HCl, pH 8.0, containing 20 mM NaCl and purified by size exclusion chromatography using Superdex 75 and a dialysis buffer. The quality of the refolded protein was evaluated by SDS-PAGE and NMR.
NMR spectra were recorded in PBS, pH 7.4, containing 10% (v/v) of D2O added to the samples to provide the lock signal. Water suppression was carried out using the WATERGATE sequence. All the spectra were recorded at 300 K using a Bruker Avance 600 MHz spectrometer with the Cryo-Platform. The NMR spectrum was recorded at three different ligand/protein ratios from 0 to 10. The samples were prepared by adding small amounts of a 50 mM ligand stock solution in DMSO to the protein solution (0.20 mL) of the PD-L1 fragment at a concentration of 0.14 mM. The acquisition parameters for each spectrum were as follows: size of FID32768, number of scans: 32. The spectra were visualized using TopSpin 4.0.2. (Bruker, Billerica, MA, USA)

[3] = test system: PD-1/PD-L1 blockade, Jurkat effector cells / CHO/TCRAct/PD-L1 cells; assay: Immune checkpoint blockade (ICB) assay (Promega): Jurkat ECs co-cultured with CHO/TCRAct/PD-L1 cells, NFAT luciferase readout; format: cell-based, human
Protocol: In order to explore the bioactivity of the synthesized compounds, a well-recognized immune checkpoint blockade (ICB) assay was performed. In the assay, artificial T cells, the Jurkat effector cells (Jurkat ECs), i.e., the Jurkat T cells overexpressing PD-1 and luciferase-coding gene under the control of the TCR-inducible NFAT response element, are contacted with artificial antigen-presenting CHO/TCRAct/PD-L1 cells, as illustrated in [31]. The latter is the CHO cells equipped with the TCR activator molecule, which delivers activation of Jurkat ECs, and also the PD-L1 protein, which provides a negative signal towards the activation of Jurkat ECs. Upon the blockade of the PD-1/PD-L1 interaction, activation of Jurkat ECs is increased, as we have shown before for several classes of therapeutic antibodies and small molecules.
The human PD-L1-expressing CHO-K1 cells overexpressing TCR activator (CHO/TCRAct/PD-L1) cells and Jurkat ECs T cells overexpressing PD-1 and carrying a luciferase reporter gene under the control of the Nuclear Factor of Activated T cells Response Element (NFAT-RE) were obtained from Promega and cultured in an RPMI-1640 medium (Biowest, Nuaillé, France) supplemented with 10% fetal bovine serum (FBS, Biowest, Nuaillé, France) and […] L-glutamine (Biowest, Nuaillé, France). G418 (250 µg/mL, InvivoGen, San Diego, CA, USA) and Hygromycin B Gold (50 µg/mL, InvivoGen, San Diego, CA, USA) were also added to the culture medium as selection antibiotics. CAKI 2, LNCap, PC-3, and MDA-MB-231 cells were purchased from the European Collection of Authenticated Cell Cultures (ECACC) and cultured according to the provided protocol.
For the analysis of biological activity of the analyzed compounds, an immune checkpoint blockade (ICB) assay was performed. For this, the culture of Jurkat effector cells (Jurkat-ECs) and […] was carried out. The assay was performed according to the protocol described in our previous works. All the experiments were performed three times as independent experiments.
Figure 2 Bioactivity of the indicated compounds. (A,B) The activity was monitored with a cell-based immune checkpoint blockade (ICB) assay. Jurkat ECs were contacted with pre-seeded CHO/TCRAct/PD-L1 cells in the presence of the indicated concentrations of the compounds (A) or durvalumab (B) as a positive control. The cells were co-cultured for 6 h and the luminescence signal was measured following the addition of the Bio-Glo substrate. The graphs show fold induction calculated versus either DMSO-treated (for small molecules) or untreated (for durvalumab) control (ctrl) cells. The results are mean ± SD from three independent experiments. […] (C) Analysis of the expression of PD-L1 in four human cancer cell lines compared to PD-L1-overexpressing CHO/TCRAct/PD-L1 cells. (D) Analysis of the expression of PD-L1 in MDA-MB-231 cells treated with either 4 or 5 compounds for 6 or 24 h.

T1 sequence (Q9NZQ7 19-238 limits assumed, one chain of several): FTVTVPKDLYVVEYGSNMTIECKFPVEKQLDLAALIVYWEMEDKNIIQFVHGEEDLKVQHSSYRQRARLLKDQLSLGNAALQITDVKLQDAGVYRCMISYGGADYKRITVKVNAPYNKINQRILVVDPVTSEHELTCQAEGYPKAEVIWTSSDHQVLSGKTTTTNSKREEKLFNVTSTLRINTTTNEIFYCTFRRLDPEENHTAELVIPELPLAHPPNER
T2 sequence (Q9NZQ7 18-239): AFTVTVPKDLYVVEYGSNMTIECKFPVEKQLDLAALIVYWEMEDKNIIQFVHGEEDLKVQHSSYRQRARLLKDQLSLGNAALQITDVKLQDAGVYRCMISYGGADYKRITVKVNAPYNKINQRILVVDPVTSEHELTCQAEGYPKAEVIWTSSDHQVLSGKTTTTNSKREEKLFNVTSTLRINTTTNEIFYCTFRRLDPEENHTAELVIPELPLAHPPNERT

Row | SMILES | inhibition at 0.5 µM ([1]; 0.5 µM ligand, read-out: HTRF: Percentage of the Dissociated PD-1/PD-L1 Complex, 0.5 µM Ligand Conc.) | inhibition at 5 µM ([1]; 5 µM ligand, read-out: HTRF: Percentage of the Dissociated PD-1/PD-L1 Complex, 5 µM Ligand Conc.) | Protein precipitation during NMR titration ([2]; 1H NMR titration, compound 6 at protein–ligand ratio 1:10) | Binding to PD-L1 by 1H NMR titration [2] | Promega Assay (active / not active) ([3]; cell-based PD-1/PD-L1 blockade bioassay) | HTRF: Percentage of the Dissociated PD-1/PD-L1 Complex, 0.5 µM Ligand Conc. ([1]; 0.5 µM ligand) | HTRF: Percentage of the Dissociated PD-1/PD-L1 Complex, 5 µM Ligand Conc. ([1]; 5 µM ligand) | Activation of Jurkat ECs in the ICB assay ([3]; 6 h co-culture, fold induction vs control)
1 | Cc1c(COc2cc(OCc3cccc(C#N)c3)c(C(NCCCNc3cccc4c3C(=O)N(C3CCC(=O)NC3=O)C4=O)c3nnnn3C(C)(C)C)cc2Cl)cccc1-c1ccc2c(c1)OCCO2 (stereo not drawn) [compound 6, 3-((2-((1-(tert-butyl)-1H-tetrazol-5-yl)((3-((2-(2,6-dioxopiperidin-3-yl)-1,3-dioxoisoindolin-4-yl)amino)propyl)amino)methyl)-4-chloro-5-((3-(2,3-dihydrobenzo[b][1,4]dioxin-6-yl)-2-methylbenzyl)oxy)phenoxy)methyl)benzonitrile] | 13.8% | 25.9% | massive protein precipitation | does not present changes in the PD-L1 NMR protein spectra | Not active | – | – | –
2 | Nc1cccc2c1C(=O)N(C1CCC(=O)NC1=O)C2=O (stereo not drawn) [pomalidomide] | – | – | – | lack of interaction | – | 11.4% | 20.1% | did not increase the activation of Jurkat ECs
